The conditions of series [1]: amide bond, 15-membered ring, 25.0 °C.
A further series addresses T1, EGFR L858R (BaF3-L858R) (Homo sapiens, UniProt P00533, L858R).
T1 construct: host or cells: BaF3
Description: EGFR degradation, HTRF total-EGFR assay, BaF3-L858R cells. In kind it is cell-based. Particulars: 16 h treatment. As for the experimental part: BaF3-L858R (abbv. L858R) cell were purchased from Kangyuan Bochuang Biotechnology (Beijing) Co., Ltd.
(§1) H1975-#8 and BaF3-L858R cells are treated with compounds diluted in 0.1% DMSO cell culture medium on day 2, incubate for 16 h, 37° C., 5% CO2. the final concentration of compounds in all assay starts with 10 uM, 5-fold dilution, total 8 doses were included.
(§2) Total-EGFR cellular kit (64NG1PEH) were used for evaluating EGFR degradation.
(§3) After 16 h treatment, for H1975-#8 cells, add 100 μL HTRF 1× lysis buffer to each well; for BaF3-L858R cells, add 20 μL 4× lysis buffer to each well; seal the plate and incubate 1 hour at room temperature on a plate shaker; Once the cells are lysed, 16 μL of cell lysate are transferred to a PE 384-well HTRF detection plate; 4 μL of pre-mixed HTRF antibodies are added to each well; cover the plate with a plate sealer, spin 1000 rpm for 1 min, incubate overnight at room temperature; read on BMG PheraStar with HTRF protocol (337 nm-665 nm-620 nm).
(§4) The inhibition (degradation) percentage of the compound was calculated by the following equation:
(§5) Inhibition percentage of Compound=100−100×(Signal−low control)/(High control−low control), wherein signal=each test compound group
(§6) High control=Cell group with added DMSO and without compound, indicating microplate readings without EGFR degradation.
(§7) Imax (Dmax) is the maximum percentage of inhibition (degradation).
(§8) The IC50 (DC50) value of a compound can be obtained by fitting the following equation
(§9) Wherein, X and Y are known values, and IC50, Hillslope, Top and Bottom are the parameters obtained by fitting with software. Y is the inhibition percentage (calculated from the equation), X is the concentration of the compound; IC50 is the concentration of the compound when the 50% inhibition is reached. The smaller the IC50 value is, the stronger the inhibitory ability of the compound is. Vice versa, the higher the IC50 value is, the weaker the ability the inhibitory ability of the compound is; Hillslope represents the slope of the fitted curve, generally around 1*; Bottom represents the minimum value of the curve obtained by data fitting, which is generally 0%±20%; Top represents the maximum value of the curve obtained by data fitting, which is generally 100%±20%. The experimental data were fitted by calculating and analyzing with Dotmatics data analysis software.
(In general: Time-resolved FRET reads energy transfer from a long-lived donor to a nearby acceptor.)

The target in series [2] is T2, EGFR L858R/C797S (H1975-clone #8) (Homo sapiens, UniProt P00533, C797S/L858R).
T2 construct: expressed in transfected cells; host or cells: H1975 (clone #8), lentiviral transduction, endogenous EGFR knocked out
Put plainly: EGFR degradation, HTRF total-EGFR assay, H1975-clone #8 (L858R/C797S). In kind it is cell-based. Particulars: 16 h treatment. As for the experimental part:
H1975-clone #8 (L858R/C797S): EGFR-L858R/C797S were stably expressed in H1975 cell lines by lentivirus-mediated over-expression, respectively. The EGFR over-expressed cells then underwent knockout, in which the EGFR targeting sgRNA was designed to only target the endogenous EGFR copies and preserve the exogenous EGFR copies. Followed by the knockout, the edited H1975 cells were seeded in 96 well plates at the concentration of 1 cell/well, cultured for about 2 weeks to allow single clones formation. The formed clones were screened by DNA sequencing and whole exon sequencing analysis for the desired edition. H1975-clone #8 were finally confirmed as homozygous L858R/C797S EGFR clones.
as §1, §2, §3, §4, §5, §6, §7, §8, §9

Molecules are shown by their SMILES. Where two headings read alike, the source gives them in different places.

Eleven compounds from patent publication US20250332266A1, “COMPOUNDS FOR THE DEGRADATION OF EGFR KINASE” (BeiGene Switzerland GmbH, priority 2022, published 2025) can be followed below.

What is called DC50 is the concentration giving 50% degradation. Usually Dmax stands for the greatest extent of degradation seen. Lower therefore signals shallow degradation.

T1 sequence (P00533 25-1210 L858R): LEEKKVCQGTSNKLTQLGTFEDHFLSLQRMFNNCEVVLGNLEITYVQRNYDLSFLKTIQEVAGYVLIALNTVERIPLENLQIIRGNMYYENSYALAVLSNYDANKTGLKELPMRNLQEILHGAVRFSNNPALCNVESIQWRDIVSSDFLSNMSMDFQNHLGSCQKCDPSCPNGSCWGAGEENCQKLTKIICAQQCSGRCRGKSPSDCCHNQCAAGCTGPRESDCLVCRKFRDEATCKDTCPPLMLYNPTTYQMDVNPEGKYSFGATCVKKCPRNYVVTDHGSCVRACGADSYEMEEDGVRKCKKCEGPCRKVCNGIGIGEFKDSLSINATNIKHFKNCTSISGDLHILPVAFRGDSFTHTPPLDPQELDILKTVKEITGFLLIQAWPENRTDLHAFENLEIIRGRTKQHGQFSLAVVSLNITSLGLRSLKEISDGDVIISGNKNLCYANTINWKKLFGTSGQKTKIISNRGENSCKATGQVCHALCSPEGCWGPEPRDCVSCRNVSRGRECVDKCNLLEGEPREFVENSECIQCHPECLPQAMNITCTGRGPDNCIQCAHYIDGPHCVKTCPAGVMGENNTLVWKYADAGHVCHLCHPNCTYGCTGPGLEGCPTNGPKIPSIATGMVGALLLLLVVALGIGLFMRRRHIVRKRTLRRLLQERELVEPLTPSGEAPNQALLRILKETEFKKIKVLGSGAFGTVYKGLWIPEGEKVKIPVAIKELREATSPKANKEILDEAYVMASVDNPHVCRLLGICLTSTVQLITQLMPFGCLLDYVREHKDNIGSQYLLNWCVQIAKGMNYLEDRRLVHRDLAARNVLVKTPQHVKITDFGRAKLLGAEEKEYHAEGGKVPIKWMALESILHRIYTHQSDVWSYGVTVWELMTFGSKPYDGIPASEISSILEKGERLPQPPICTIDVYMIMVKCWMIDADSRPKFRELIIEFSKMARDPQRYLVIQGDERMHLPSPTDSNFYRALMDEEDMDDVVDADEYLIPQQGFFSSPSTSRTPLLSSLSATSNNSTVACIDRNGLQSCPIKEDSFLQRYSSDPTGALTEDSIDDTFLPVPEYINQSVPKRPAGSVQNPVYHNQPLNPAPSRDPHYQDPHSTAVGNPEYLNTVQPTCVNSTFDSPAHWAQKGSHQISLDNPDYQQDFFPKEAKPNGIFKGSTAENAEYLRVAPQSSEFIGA
T2 sequence (P00533 25-1210 C797S/L858R): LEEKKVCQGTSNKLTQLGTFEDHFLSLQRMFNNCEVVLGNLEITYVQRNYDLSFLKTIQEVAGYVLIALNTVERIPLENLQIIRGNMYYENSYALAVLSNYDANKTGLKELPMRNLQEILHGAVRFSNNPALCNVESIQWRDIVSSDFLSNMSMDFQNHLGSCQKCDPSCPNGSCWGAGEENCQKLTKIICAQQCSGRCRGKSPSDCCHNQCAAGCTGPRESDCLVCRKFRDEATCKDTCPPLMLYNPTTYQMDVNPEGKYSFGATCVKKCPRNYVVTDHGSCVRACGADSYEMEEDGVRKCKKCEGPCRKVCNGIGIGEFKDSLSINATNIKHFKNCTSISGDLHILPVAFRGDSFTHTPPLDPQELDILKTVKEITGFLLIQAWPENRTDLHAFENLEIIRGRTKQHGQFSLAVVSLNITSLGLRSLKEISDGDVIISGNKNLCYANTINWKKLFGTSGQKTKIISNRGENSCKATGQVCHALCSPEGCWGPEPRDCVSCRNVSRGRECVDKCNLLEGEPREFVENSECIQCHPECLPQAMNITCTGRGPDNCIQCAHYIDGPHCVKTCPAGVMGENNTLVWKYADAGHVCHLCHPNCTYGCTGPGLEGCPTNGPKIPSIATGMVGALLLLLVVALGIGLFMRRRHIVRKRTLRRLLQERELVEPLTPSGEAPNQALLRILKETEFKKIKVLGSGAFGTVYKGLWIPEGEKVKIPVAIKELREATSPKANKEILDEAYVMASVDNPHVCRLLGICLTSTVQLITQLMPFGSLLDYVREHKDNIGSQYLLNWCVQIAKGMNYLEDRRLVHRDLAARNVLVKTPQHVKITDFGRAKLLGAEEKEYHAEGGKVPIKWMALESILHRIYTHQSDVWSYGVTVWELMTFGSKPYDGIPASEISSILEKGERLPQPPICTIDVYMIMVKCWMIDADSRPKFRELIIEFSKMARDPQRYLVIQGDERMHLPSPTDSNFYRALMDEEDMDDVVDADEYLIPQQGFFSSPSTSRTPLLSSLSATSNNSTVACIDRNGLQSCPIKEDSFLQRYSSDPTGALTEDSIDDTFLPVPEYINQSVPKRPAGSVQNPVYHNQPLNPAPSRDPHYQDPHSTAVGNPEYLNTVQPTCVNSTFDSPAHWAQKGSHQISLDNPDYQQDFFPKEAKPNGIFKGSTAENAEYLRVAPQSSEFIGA

In series [1] (the molecule shown is the open-chain precursor, LiHMDS, THF, 116.0 mM), `COC(=O)c1cc(C)nc(-c2cnn(C)c2OCC2CC(Cn3c(=N)[nH]c4ccc(Br)cc43)C2)c1` (stereo not shown) yielded a ring closure, isolated yield of 74.7%.

Regarding `Cc1cc(C(=O)O)cc(-c2cnn(C)c2OCC2CC(Cn3c(=N)[nH]c4ccc(CN5CCN(C(=O)OC(C)(C)C)CC5)cc43)C2)n1` (stereo not shown), in series [1] (the molecule shown is the open-chain precursor, HATU/DIEA, DMF, 70.0 mM), the ring closure, isolated yield was determined as 50.1%.

The compound `Cc1cc2cc(n1)-c1cnn(C)c1OCC1CC(C1)Cn1c(nc3ccc(N4CCN(C(=O)OC(C)(C)C)CC4=O)cc31)NC2=O` showed a ring closure, isolated yield in series [1] (from Cc1cc(C(=O)O)cc(-c2cnn(C)c2OCC2CC(Cn3c(N)nc4ccc(N5CCN(C(=O)OC(C)(C)C)CC5=O)cc43)C2)n1, HATU/DIEA, DCM, 34.0 mM) of 51.6%.

In the case of `Cc1cc2cc(n1)-c1cnn(C)c1OC[C@H]1C[C@@H](CN3/C(=N/C2=O)Nc2ccc(N4C[C@H](C)N(C5CCN(c6ccc(C7CCC(=O)NC7=O)nc6C)CC5)C[C@@H]4C)cc23)C1` (stereo partly drawn) [Example 139, 3-(5-(4-((2S,5S)-4-((7^1s,7^3R,E)-1^1,2^6-dimethyl-3-oxo-5^2,5^3-dihydro-1^1H,5^1H-9-oxa-4-aza-5(2,1)-benzo[d]imidazola-2(2,4)-pyridina-1(4,5)-pyrazola-7(1,3)-cyclobutanacyclononaphane-5^6-yl)-2,5-dimethylpiperazin-1-yl)piperidin-1-yl)-6-methylpyridin-2-yl)piperidine-2,6-dione], on EGFR L858R (BaF3-L858R), half-maximal degradation (DC50) was put at 30.7 nM and the Dmax stood at 88.9%.

As for `CCc1nc(C2CCC(=O)NC2=O)ccc1N1CCC(N2CCN(c3ccc4c(c3)N3C[C@H]5C[C@@H](COc6c(cnn6C)-c6cc(cc(C)n6)C(=O)/N=C/3N4)C5)CC2)CC1` (stereo partly shown) [Example 140, 3-(5-(4-(4-((7^1s,7^3s,E)-1^1,2^6-dimethyl-3-oxo-5^2,5^3-dihydro-1H,5^1H-9-oxa-4-aza-5(2,1)-benzo[d]imidazola-2(2,4)-pyridina-1(4,5)-pyrazola-7(1,3)-cyclobutanacyclononaphane-5^6-yl)piperazin-1-yl)piperidin-1-yl)-6-ethylpyridin-2-yl)piperidine-2,6-dione], at EGFR L858R (BaF3-L858R), half-maximal degradation (DC50) was put at 37.8 nM and the Dmax was determined as 90.6%.

Turning to `Cc1cc2cc(n1)-c1cnn(C)c1OC[C@H]1C[C@@H](CN3/C(=N/C2=O)Nc2ccc(N4CCN(C5CCN(c6c(C)cc(C7CCC(=O)NC7=O)nc6C)CC5)CC4)cc23)C1` (stereo partly shown) [Example 141, 3-(5-(4-(4-((7^1s,7^3s,E)-1^1,2^6-dimethyl-3-oxo-5^2,5^3-dihydro-1^1H,5^1H-9-oxa-4-aza-5(2,1)-benzo[d]imidazola-2(2,4)-pyridina-1(4,5)-pyrazola-7(1,3)-cyclobutanacyclononaphane-5^6-yl)piperazin-1-yl)piperidin-1-yl)-4,6-dimethylpyridin-2-yl)piperidine-2,6-dione], at EGFR L858R (BaF3-L858R), the DC50 amounted to 11.9 nM and the Dmax came out at 85.1%. In series [2], this compound yielded a DC50 of 0.7 nM and a Dmax of 40.4%.

As to `Cc1cc2cc(n1)-c1cnn(C)c1OC[C@H]1C[C@@H](CN3/C(=N/C2=O)Nc2ccc(N4CCN(C5CCN(c6cc(F)c(C7CCC(=O)NC7=O)nc6C)CC5)CC4)cc23)C1` (stereo partly shown) [Example 142, 3-(5-(4-(4-((7^1s,7^3s,E)-1^1,2^6-dimethyl-3-oxo-5^2,5^3-dihydro-1^1H,5^1H-9-oxa-4-aza-5(2,1)-benzo[d]imidazola-2(2,4)-pyridina-1(4,5)-pyrazola-7(1,3)-cyclobutanacyclononaphane-5^6-yl)piperazin-1-yl)piperidin-1-yl)-3-fluoro-6-methylpyridin-2-yl)piperidine-2,6-dione], on EGFR L858R (BaF3-L858R), the DC50 stood at 52.3 nM and the maximal degradation (Dmax) was 76.2%.

On EGFR L858R (BaF3-L858R), `CCc1cc(C2CCC(=O)NC2=O)ncc1N1CCC(N2CC(N3CCN(c4ccc5c(c4)N4C[C@H]6C[C@@H](COc7c(cnn7C)-c7cc(cc(C)n7)C(=O)/N=C/4N5)C6)CC3)C2)CC1` (stereo partly shown) [Example 143, 3-(5-(4-(3-(4-((7^1s,7^3s,E)-1^1,2^6-dimethyl-3-oxo-5^2,5^3-dihydro-1^1H,5^1H-9-oxa-4-aza-5(2,1)-benzo[d]imidazola-2(2,4)-pyridina-1(4,5)-pyrazola-7(1,3)-cyclobutanacyclononaphane-5^6-yl)piperazin-1-yl)azetidin-1-yl)piperidin-1-yl)-4-ethylpyridin-2-yl)piperidine-2,6-dione] gave a DC50 of 8.5 nM and a Dmax of 75.8%.

At EGFR L858R (BaF3-L858R), `Cc1cc2cc(n1)-c1cnn(C)c1OC[C@H]1C[C@@H](CN3/C(=N/C2=O)Nc2ccc(N4CCN(C5CN(C6CCN(c7cc(F)c([C@H]8CCC(=O)NC8=O)c(F)c7)CC6)C5)C[C@H]4C)cc23)C1` [Example 148, (R)-3-(4-(4-(3-((R)-4-((7^1s,7^3S,E)-1^1,2^6-dimethyl-3-oxo-5^2,5^3-dihydro-1^1H,5^1H-9-oxa-4-aza-5(2,1)-benzo[d]imidazola-2(2,4)-pyridina-1(4,5)-pyrazola-7(1,3)-cyclobutanacyclononaphane-5^6-yl)-3-methylpiperazin-1-yl)azetidin-1-yl)piperidin-1-yl)-2,6-difluorophenyl)piperidine-2,6-dione] returned a DC50 of 3 nM and a Dmax of 80%.

Take `CCc1nc(C2CCC(=O)NC2=O)ccc1N1CCC(N2CC(N3CCN(c4ccc5c(c4)N4C[C@H]6C[C@@H](COc7c(cnn7C)-c7cc(cc(C)n7)C(=O)/N=C/4N5)C6)CC3)C2)CC1` (stereo partly shown) [Example 149, 3-(5-(4-(3-(4-((7^1s,7^3s,E)-1^1,2^6-dimethyl-3-oxo-5^2,5^3-dihydro-1^1H,5^1H-9-oxa-4-aza-5(2,1)-benzo[d]imidazola-2(2,4)-pyridina-1(4,5)-pyrazola-7(1,3)-cyclobutanacyclononaphane-5^6-yl)piperazin-1-yl)azetidin-1-yl)piperidin-1-yl)-6-ethylpyridin-2-yl)piperidine-2,6-dione]: the DC50 on EGFR L858R (BaF3-L858R) worked out at 16 nM; in series [2], 3.3 nM. Also, the values for the Dmax (at EGFR L858R (BaF3-L858R); in series [2]) were 71.1% and 52.2%, respectively.

At EGFR L858R (BaF3-L858R), `Cc1cc2cc(n1)-c1cnn(C)c1OC[C@H]1C[C@@H](CN3/C(=N/C2=O)Nc2ccc(N4CCN(C5CN(CCc6c(C)cc(C7CCC(=O)NC7=O)nc6C)C5)CC4)cc23)C1` (stereo partly shown) [Example 150, 3-(5-(2-(3-(4-((7^1s,7^3s,E)-1^1,2^6-dimethyl-3-oxo-5^2,5^3-dihydro-1^1H,5^1H-9-oxa-4-aza-5(2,1)-benzo[d]imidazola-2(2,4)-pyridina-1(4,5)-pyrazola-7(1,3)-cyclobutanacyclononaphane-5^6-yl)piperazin-1-yl)azetidin-1-yl)ethyl)-4,6-dimethylpyridin-2-yl)piperidine-2,6-dione] yielded a DC50 of 11.9 nM and a Dmax of 73.5%. In series [2], the DC50 worked out at 3.5 nM and the Dmax is 51.9%.
